Several values for one entry are separate records, joined by “and”; a condition that tells them apart may be missing. Identical values can stand only once. Bounds are passed on as bounds.

Experiment [1] deals with T1, P2X4 (Homo sapiens, UniProt Q99571).
T1 sequence (Q99571 1-388): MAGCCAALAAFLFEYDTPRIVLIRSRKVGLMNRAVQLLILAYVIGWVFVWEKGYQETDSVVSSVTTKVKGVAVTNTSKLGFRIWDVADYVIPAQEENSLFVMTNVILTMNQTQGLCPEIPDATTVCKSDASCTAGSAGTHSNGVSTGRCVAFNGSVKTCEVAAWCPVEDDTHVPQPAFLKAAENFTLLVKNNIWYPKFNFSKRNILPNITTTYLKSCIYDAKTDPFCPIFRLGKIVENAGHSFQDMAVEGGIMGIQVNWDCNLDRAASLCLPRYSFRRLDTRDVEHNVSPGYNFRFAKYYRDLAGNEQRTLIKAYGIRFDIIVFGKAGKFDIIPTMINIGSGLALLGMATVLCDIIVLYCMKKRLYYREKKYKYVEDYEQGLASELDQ
The experiment can be described thus: Assay A: human P2X4 receptor cell line, FLIPR calcium assay (Fluo-8, agonist Bz-ATP at EC80). The experiment is classed as cell-based. Details: host or cells: HEK 293 (recombinant, constitutively expressing; with mitochondrial photina in Assay B). To be noted: HEK human P2X4 cells, Fluo-8 FLIPR; for IC50: Bz-ATP at EC80, average values; for Emax: percentage of maximal inhibition, read-out: human P2X4 Assay A avg Efficacy. On the procedure:
A fluorescent imaging plate reader (FLEX/FLIPR station; Molecular Devices) was used to monitor intracellular calcium levels using the calcium-chelating dye Fluo-8 (Molecular Probes). […] Cells expressing purinergic receptors human P2X4 (HEK human P2X4: PerkinElmer, Product No.: AX-015-PCF) were plated at a density of 20,000 cells/well in poly-D-lysine-coated 384-well plates approximately 20 hours before beginning the assay. On the day of the assay, the medium was removed and 30 μl of dye buffer (Hank's balanced salt solution, 10 mM HEPES, 1.8 mM CaCl2), 1 mM MgCl2, 2 mM probenecid, 5 mM D-glucose monohydrate, 5 μM Fluo-8, pH=7.4) was added for 30 min at […] and 5% CO2. The antagonist in probenecid buffer (Hank's balanced salt solution, 10 mM HEPES, 1.8 mM CaCl2, 1 mM MgCl2, 2 mM probenecid, 5 mM D-glucose monohydrate, pH=7.4) was added in a volume of 10 μl and allowed to incubate for 30 min at room temperature. The final assay DMSO concentration is 0.5%. The agonist, Bz-ATP, is added in a volume of 10 μl at a concentration representing the EC80 value. The fluorescence was measured for an interval of 120 sec at 2 sec intervals and analyzed based on the increase in peak relative fluorescence units (RFU) compared to the basal fluorescence. Peak fluorescence was used to determine the response to agonist obtained at each concentration of antagonist by the following equation:
% Response=100*(RFU(drug)−RFU(control))/(RFU(DMSO)−RFU(control))
The compounds were tested in triplicates per plate and mean values were plotted in Excel XLFit to determine IC50 values, percentage of maximal inhibition and the Hill coefficients.

Experiment [2] deals with T1, P2X4. The experiment can be described thus: Assay B: human P2X4 receptor cell line, mitochondrial photina luminescence (agonist Bz-ATP at EC50). The experiment is classed as cell-based. Details: host or cells: HEK 293 (recombinant, constitutively expressing; with mitochondrial photina in Assay B). To be noted: HEK human P2X4 cell line, photina luminescence, agonist Bz-ATP at EC50, average; for Emax: read-out: human P2X4 Assay B avg Efficacy. Put shortly:
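Recombinant cell line constitutively expressing human P2X4 and mitochondrial photina photoprotein, reconstituted with coelenterazine. Receptor stimulated with Bz-ATP at EC50; calcium influx read immediately as luminescence.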

In general, IC50 refers to the concentration that inhibits the measured activity by half. As to `CC(Oc1ccc(NC(=O)Cc2ccccc2Cl)cc1S(N)(=O)=O)c1ccccc1` (single isomer, unassigned) [Example 148A, 2-(2-Chlorophenyl)-N-[4-(1-phenylethoxy)-3-sulfamoylphenyl]acetamide], at P2X4 [1], the IC50 amounted to 74 nM and the Emax was 92%. At P2X4 [2], the concentration for half-maximal inhibition (IC50) was 143 nM and the Emax amounted to 68%.

On to `CN(C)c1cccc(Oc2ccc(NC(=O)Cc3ccccc3Cl)cc2S(N)(=O)=O)c1` [Example 002, 2-(2-Chlorophenyl)-N-{4-[3-(dimethylamino)phenoxy]-3-sulfamoylphenyl}acetamide], for which, at P2X4 [1], the IC50 was determined as 29 nM and the Emax is 96%. Also, on P2X4 [2], the IC50 was found to be 79 nM and the Emax came out at 81%.

As for `CC(C)c1cccc(Oc2ccc(NC(=O)Cc3ccccc3Cl)cc2S(N)(=O)=O)c1` [Example 004, 2-(2-Chlorophenyl)-N-[4-(3-isopropylphenoxy)-3-sulfamoylphenyl]acetamide], the IC50 turned out to be 149 nM at P2X4 [1] and 95 nM on P2X4 [2]. Moreover, the Emax at P2X4 [1] is 90%; on P2X4 [2] it was 68%.

With `NS(=O)(=O)c1cc(NC(=O)Cc2ccccc2Cl)ccc1Oc1cccc(C(F)(F)F)c1` [Example 005, 2-(2-Chlorophenyl)-N-{3-sulfamoyl-4-[3-(trifluoromethyl)phenoxy]phenyl}acetamide], at P2X4 [1], the IC50 amounted to 77 nM and the Emax worked out at 94%. Moreover, at P2X4 [2], the IC50 was found to be 90 nM and the Emax is 89%.

With `[2H]c1c([2H])c(Oc2ccc(NC(=O)Cc3ccccc3Cl)cc2S(N)(=O)=O)c([2H])c([2H])c1Cl` [Example 262, 2-(2-Chlorophenyl)-N-(4-{[4-chloro(^2H4)phenyl]oxy}-3-sulfamoylphenyl)acetamide], at P2X4 [1], the IC50 was 42 nM and the Emax was found to be 54%.

As for `[2H]c1c([2H])c([2H])c(Oc2ccc(NC(=O)Cc3ccccc3Cl)cc2S(N)(=O)=O)c(Cl)c1[2H]` [Example 263, 2-(2-Chlorophenyl)-N-(4-{[2-chloro(^2H4)phenyl]oxy}-3-sulfamoylphenyl)acetamide], the Emax on P2X4 [1] came to 95%.

Take `CC1(C)CC(COc2ccc(NC(=O)Cc3ccccc3Cl)cc2S(N)(=O)=O)CCO1` (centres unmarked) [Example 265, 2-(2-Chlorophenyl)-N-{4-[(2,2-dimethyltetrahydro-2H-pyran-4-yl)methoxy]-3-sulfamoylphenyl}acetamide]: at P2X4 [1], the IC50 amounted to 416 nM and the Emax is 74%.

With `NS(=O)(=O)c1cc(NC(=O)Cc2ccccc2Cl)ccc1OC[C@H]1[C@@H]2COC[C@@H]21` [Example 266, 2-(2-Chlorophenyl)-N-{4-[(1R,5S,6r)-3-oxabicyclo[3.1.0]hex-6-ylmethoxy]-3-sulfamoylphenyl}acetamide], on P2X4 [1], the IC50 was found to be 63 nM and the Emax turned out to be 89%.

For `NS(=O)(=O)c1cc(NC(=O)Cc2ccccc2Cl)ccc1OCC1(Cl)CCOCC1` [Example 267, 2-(2-Chlorophenyl)-N-{4-[(4-chlorotetrahydro-2H-pyran-4-yl)methoxy]-3-sulfamoylphenyl}acetamide], on P2X4 [1], the IC50 was 4440 nM and the Emax came out at 76%.

With `NS(=O)(=O)c1cc(NC(=O)Cc2ccccc2Cl)ccc1OCC1COCCO1` (centres unmarked) [Example 268, 2-(2-Chlorophenyl)-N-[4-(1,4-dioxan-2-ylmethoxy)-3-sulfamoylphenyl]acetamide], the Emax on P2X4 [1] came to 77%.

As for `NS(=O)(=O)c1cc(NC(=O)Cc2ccc(F)cc2Cl)ccc1OCC1CCOCC1` [Example 282, 2-(2-Chloro-4-fluorophenyl)-N-[3-sulfamoyl-4-(tetrahydro-2H-pyran-4-ylmethoxy)phenyl]acetamide], the Emax on P2X4 [1] was determined as 82%.

Regarding `NS(=O)(=O)c1cc(NC(=O)Cc2ccccc2Cl)ccc1Oc1ccc(C(F)(F)F)nc1` [Example 283, 2-(2-Chlorophenyl)-N-(3-sulfamoyl-4-{[6-(trifluoromethyl)pyridin-3-yl]oxy}phenyl)-acetamide], on P2X4 [1], the IC50 came to 8050 nM and the Emax came out at 62%.

Consider `NS(=O)(=O)c1cc(NC(=O)Cc2ccccc2Cl)ccc1Oc1cc(C(F)(F)F)c(Cl)cn1` [Example 284, 2-(2-Chlorophenyl)-N-(4-{[5-chloro-4-(trifluoromethyl)pyridin-2-yl]oxy}-3-sulfamoyl-phenyl)acetamide], for which, on P2X4 [1], the IC50 is 10900 nM and the Emax is 82%.

Turning to `NS(=O)(=O)c1cc(NC(=O)Cc2ccccc2Cl)ccc1Oc1cnc(Cl)c(F)c1` [Example 286, N-{4-[(6-Chloro-5-fluoropyridin-3-yl)oxy]-3-sulfamoylphenyl}-2-(2-chlorophenyl)-acetamide], at P2X4 [1], the IC50 came to 237 nM and the Emax was 55%.

For the molecule `NS(=O)(=O)c1cc(NC(=O)Cc2ccccc2Cl)ccc1OCC1(O)CCC(F)(F)CC1` [Example 287, 2-(2-Chlorophenyl)-N-{4-[(4,4-difluoro-1-hydroxycyclohexyl)methoxy]-3-sulfamoyl-phenyl}acetamide], on P2X4 [1], the IC50 is 187 nM and the Emax is 58%.

For the molecule `NS(=O)(=O)c1cc(NC(=O)Cc2ccccc2Cl)ccc1OCC1(O)CCCCC1` [Example 288, 2-(2-Chlorophenyl)-N-{4-[(1-hydroxycyclohexyl)methoxy]-3-sulfamoylphenyl}-acetamide], at P2X4 [1], the IC50 was found to be 988 nM and the Emax was determined as 57%.

For the molecule `NS(=O)(=O)c1cc(NC(=O)Cc2ccccc2F)cc(F)c1Oc1cccc(Cl)c1` [Example 289, N-[4-(3-Chlorophenoxy)-3-fluoro-5-sulfamoylphenyl]-2-(2-fluorophenyl)acetamide], on P2X4 [1], the IC50 was over 25000 nM and the Emax came out at 34%.

With `NS(=O)(=O)c1cc(NC(=O)Cc2ccccc2C(F)F)cc(F)c1Oc1cccc(Cl)c1` [Example 290, N-[4-(3-Chlorophenoxy)-3-fluoro-5-sulfamoylphenyl]-2-[2-(difluoromethyl)-phenyl]acetamide], on P2X4 [1], the IC50 stood at 16000 nM and the Emax amounted to 66%.

Turning to `NS(=O)(=O)c1cc(NC(=O)Cc2ccccc2Cl)cc(F)c1Oc1cccc(Cl)c1` [Example 291, N-[4-(3-Chlorophenoxy)-3-fluoro-5-sulfamoylphenyl]-2-(2-chlorophenyl)acetamide], at P2X4 [1], the IC50 was 10500 nM and > 25000 nM; the Emax is 57%.

Consider `NS(=O)(=O)c1cc(NC(=O)Cc2cc(F)ccc2Cl)cc(F)c1Oc1cccc(Cl)c1` [Example 292, 2-(2-Chloro-5-fluorophenyl)-N-[4-(3-chlorophenoxy)-3-fluoro-5-sulfamoyl-phenyl]acetamide], for which, at P2X4 [1], the IC50 was 15100 nM and the Emax amounted to 69%.

Take `NS(=O)(=O)c1cc(NC(=O)Cc2ccccc2F)cnc1Oc1cccc(Cl)c1` [Example 293, N-[6-(3-Chlorophenoxy)-5-sulfamoylpyridin-3-yl]-2-(2-fluorophenyl)acetamide]: at P2X4 [1], the IC50 came out at 72 nM and the Emax stood at 67%.

On to `NS(=O)(=O)c1cc(NC(=O)Cc2ccccc2C(F)(F)F)cnc1Oc1cccc(Cl)c1` [Example 294, N-[6-(3-Chlorophenoxy)-5-sulfamoylpyridin-3-yl]-2-[2-(trifluoromethyl)phenyl]-acetamide], for which, at P2X4 [1], the IC50 came to 107 nM and the Emax came out at 84%.

For the molecule `NS(=O)(=O)c1cc(NC(=O)Cc2ccccc2C(F)F)cnc1Oc1cccc(Cl)c1` [Example 295, N-[6-(3-Chlorophenoxy)-5-sulfamoylpyridin-3-yl]-2-[2-(difluoromethyl)phenyl]-acetamide], on P2X4 [1], the IC50 stood at 155 nM and the Emax was 85%.

For `NS(=O)(=O)c1cc(NC(=O)Cc2cc(F)ccc2Cl)cnc1Oc1cccc(Cl)c1` [Example 296, 2-(2-Chloro-5-fluorophenyl)-N-[6-(3-chlorophenoxy)-5-sulfamoylpyridin-3-yl]-acetamide], at P2X4 [1], the IC50 amounted to 59 nM and the Emax came out at 78%.

(Values after patent publication US20180338980A1, “AROMATIC SULFONAMIDE DERIVATIVES” (BAYER PHARMA AKTIENGESELLSCHAFT, priority 2015, published 2018).)
